In patent publication US12679837B2, “Aminopyrimidine compound as CDK2/4/6 triple inhibitor” (CISEN PHARMACEUTICAL CO., LTD, priority 2019, dated 2026):

What was measured:
[1] = target: T1, CDK2/CyclinA2 (Homo sapiens, UniProt P24941); experiment: CDK2/CyclinA2 kinase activity test (ADP-Glo); format: biochemical; details: 50 μM ATP, 25° C., 60 minutes; read-out: Enzyme activity data (IC50) CDK2/cyclinA
T1 construct: purchased Promega
Procedure: Experimental materials: CDK2/CyclinA2 kinase detection kit was purchased from Promega. Nivo Multilabel Analyzer (PerkinElmer).
Experimental method: Kinase buffer dilution enzyme in the kit, substrate, adenosine triphosphate and inhibitor were used. The compounds to be tested were diluted 5-fold to the 8th concentration with a row gun, that is, from 50 μM to 0.65 nM, the concentration of DMSO was 5%, and a double-replicate well experiment was set up. 1 μL of each concentration gradient of inhibitor, 2 μL of CDK2/CyclinA2 enzyme (1.6 ng), and 2 μL of a mixture of substrate and ATP (50 μM of adenosine triphosphate, 0.1 μg/μL of substrate) were added to the microplate, and at this time, the final concentration gradient of compound was diluted from 10 μM to 0.13 nM. The reaction system was placed at 25° C. and reacted for 60 minutes. After the reaction was complete, 5 μL of ADP-Glo reagent was added to each well, and the reaction was continued at 25° C. for 40 minutes. At the end of the reaction, 10 μL of kinase detection reagent was added to each well. After the reaction was continued at 25° C. for 30 minutes, the chemiluminescence was read by a multi-label analyzer with an integration time of 0.5 seconds.
Using the equation (Sample−Min)/(Max−Min)×100% to convert the original data into inhibition rate, the IC50 value can be obtained by curve fitting with four parameters (obtained by the mode of log(inhibitor) vs. response—Variable slope in GraphPad Prism). Table 1 provides the enzymatic inhibitory activities of the compounds of the present invention on CDK2/CyclinA2, CDK2/CyclinE1, CDK4/CyclinD1, CDK6/CyclinD1, CDK9/CyclinT1.

[2] = target: T2, CDK4/CyclinD1 (Homo sapiens, UniProt P11802); experiment: CDK4/CyclinD1 kinase activity test (LANCE Ultra TR-FRET); format: biochemical; details: 350 μM ATP, 25° C., 120 minutes; read-out: Enzyme activity data (IC50) CDK4/cyclinD1
T2 construct: purchased Invitrogen
Procedure: Experimental materials: CDK4/CyclinD1 kinase was purchased from Invitrogen, reaction substrate LANCE Ultra ULight™-4E-BP-1 (Thr37146) Peptide and EU-ANTI-P-4EBP1 (THR37/46) were purchased from PerkinElmer. Nivo Multilabel Analyzer (PerkinElmer).
(§1) Experimental method: preparation of kinase buffer: The components of the buffer include: 50 mM of hydroxyethylpiperazine […] solution with pH 7.5, 1 mM of EDTA, 10 mM of magnesium chloride, 0.01% lauryl polyoxyethylene ether (Brij-35), 2 mM of enzyme dithiothreitol, kinase buffer dilution enzyme, substrate LANCE Ultra ULight™-4E-BP-1 (Thr37146) Peptide, adenosine triphosphate and inhibitor. […] The reaction system was continued at 25° C. for 120 minutes. After the reaction was complete, a mixture of 5 μL of EDTA and 2× LANCE™ Detection Buffer (1:1) was added to each well, and reacted at 25° C. for 5 minutes, after the reaction was complete, 5 μL of LANCE Ultra Eu-anti-P-4E-BP1(Thr37MS) (4 nM) was added to each well, and reacted at 25° C. for 60 minutes, the reaction signal was detected by Nivo instrument according to the principle of time-resolved fluorescence resonance energy transfer.
(§2) Table 1 provides the enzymatic inhibitory activities of the compounds of the present invention on CDK2/CyclinA2, CDK2/CyclinE1, CDK4/CyclinD1, CDK6/CyclinD1, CDK9/CyclinT1.

[3] = target: T3, CDK6/CyclinD1 (Homo sapiens, UniProt Q00534); experiment: CDK6/CyclinD1 kinase activity test (LANCE Ultra TR-FRET); format: biochemical; details: 250 μM ATP, 25° C., 120 minutes; read-out: Enzyme activity data (IC50) CDK6/cyclinD1
T3 construct: purchased Carna
Procedure: Experimental materials: CDK6/CyclinD1 kinase was purchased from Carna, reaction substrate LANCE Ultra ULight™-4E-BP-1 (Thr37146) Peptide and EU-ANTI-P-4EBP1 (THR37/46) were purchased from PerkinElmer. Nivo Multilabel Analyzer (PerkinElmer).
as §1, §2

[4] = target: T4, CDK9/CyclinT1 (Homo sapiens, UniProt P50750); experiment: CDK9/CyclinT1 kinase activity assay (ADP-Glo); format: biochemical; details: 100 μM ATP, 25° C., 60 minutes; read-out: Enzyme activity data (IC50) CDK9/CyclinT1
T4 construct: purchased Carna
Procedure: Experimental materials: CDK9/CyclinT1 kinase was purchased from Carna, the ADP-Glo detection kit was purchased from Promega, the PKDTide substrate and kinase reaction buffer were purchased from Signalchem. Nivo Multilabel Analyzer (PerkinElmer).
Experimental method: Kinase buffer dilution enzyme in the kit, substrate, adenosine triphosphate and inhibitor were used. […] The reaction system was placed at 25° C. and reacted for 60 minutes. After the reaction was complete, 5 μL of ADP-Glo reagent was added to each well, and the reaction was continued at 25° C. for 40 minutes. At the end of the reaction, 10 μL of kinase detection reagent was added to each well. After the reaction was continued at 25° C. for 30 minutes, the chemiluminescence was read by a multi-label analyzer with an integration time of 0.5 seconds.
as §2

[5] = test system: HCT116 cells; experiment: HCT116 cell activity test (CellTiter-Glo); format: cell-based; details: Homo sapiens, HCT-116, 96 h, 4 days, read-out: Antiproliferative activity (IC50) HCT 116
Procedure: (§3) Experimental materials: McCoy' 5a medium, fetal bovine serum, and penicillin/streptomycin antibiotics were purchased from Vicente. CellTiter-Glo (chemiluminescence detection reagent for cell viability) reagent was purchased from Promega. The HCT116 cell line was purchased from Cobioer Biosciences Co., Ltd. Nivo Multilabel Analyzer (PerkinElmer).
Experimental method: HCT116 cells were seeded in a white 96-well plate, 80 μL of cell suspension per well, which contained 1000 HCT116 cells. The cell plate was incubated overnight in a carbon dioxide incubator. The compounds to be tested were diluted 5-fold to the 9th concentration with a row gun, that is, from 2 mM to 5.12 nM, and a double-replicate well experiment was set up. 78 μL of medium was added to the middle plate, and then transferred 2 μL per well of the gradient diluted compound to the middle plate according to the corresponding position, mixed well and transferred 20 μL per well to the cell plate. […] Another cell plate was prepared, and the signal value was read as the maximum value (Max value in the equation below) on the day of drug addition to participate in data analysis. 25 μL of chemiluminescence detection reagent for cell viability was added to each well of the cell plate, and incubated at room temperature for 10 minutes to stabilize the luminescence signal. A multi-label analyzer was used for reading. […]

[6] = test system: HCC1806 cells; experiment: HCC1806 cell activity test (CyQUANT); format: cell-based; details: Homo sapiens, 168 h, 7 days, read-out: Antiproliferative activity (IC50) HCC1806
Procedure: Experimental materials: RPMI-1640 medium, fetal bovine serum, penicillin/streptomycin antibiotics were purchased from Vicente. CyQUANT Cell Proliferation Assays (Cell proliferation assay kit) reagents were purchased from ThermoFisher. The HCC1806 cell line was purchased from Cobioer Biosciences Co., Ltd. Nivo Multilabel Analyzer (PerkinElmer).
Experimental method: HCC1806 cells were seeded in a white 96-well plate, 80 μL of cell suspension per well, which contained 3000 HCC1806 cells. The cell plate was incubated overnight in a carbon dioxide incubator. The compounds to be tested were diluted 5-fold to the 9th concentration with a row gun, that is, from 10 mM to 25.6 nM, and a double-replicate well experiment was set up. 78 μL of medium was added to the middle plate, and then transferred 2 μL per well of the gradient diluted compound to the middle plate according to the corresponding position, mixed well and transferred 20 μL per well to the cell plate. […] After reaching the incubation time, the cell supernatant was removed, and the cell plate was placed in a −80° C. refrigerator for 1 hour, after which 100 μL of Cyquant reagent was added to each well, and a multi-label analyzer was used for reading. Another cell plate was prepared, and the signal value was read as the maximum value (Max value in the equation below) on the day of drug addition to participate in data analysis. […]

[7] = test system: MDA-MB-468 cells; experiment: MDA-MB-468 cell activity test (CellTiter-Glo); format: cell-based; details: Homo sapiens, 168 h; MDA-MB-468 cells (Rb-negative), 7 days; read-out: Antiproliferative activity (IC50) MDA-MB-468
Procedure: as §3, with “L15” for “McCoy' 5a”, “serum,” for “serum, and”, “MDA-MB-468” for “HCT116”
Experimental method: MDA-MB-468 cells were seeded in a white 96-well plate, 80 μL of cell suspension per well, which contained 1000 MDA-MB-468 cells. The cell plate was incubated overnight in a carbon dioxide incubator. The compounds to be tested were diluted 5-fold to the 9th concentration with a row gun, that is, from 10 mM to 25.6 nM, and a double-replicate well experiment was set up. 78 μL of medium was added to the middle plate, and then transferred 2 μL per well of the gradient diluted compound to the middle plate according to the corresponding position, mixed well and transferred 20 μL per well to the cell plate. The concentration of compound transferred to the cell plate ranged from 50 μM to 0.128 nM. The cell plate was incubated in a carbon dioxide incubator for 7 days. Another cell plate was prepared, and the signal value was read as the maximum value (Max value in the equation below) on the day of drug addition to participate in data analysis. 25 μL of chemiluminescence detection reagent for cell viability was added to each well of the cell plate, and incubated at room temperature for 10 minutes to stabilize the luminescence signal. A multi-label analyzer was used for reading.
Data analysis: Using the equation (Sample−Min)/(Max−Min)×100% to convert the original data into inhibition rate, the IC50 value can be obtained by curve fitting with four parameters (obtained by the mode of log(inhibitor) vs. response—Variable slope in GraphPad Prism).

T2 sequence (P11802 whole entry): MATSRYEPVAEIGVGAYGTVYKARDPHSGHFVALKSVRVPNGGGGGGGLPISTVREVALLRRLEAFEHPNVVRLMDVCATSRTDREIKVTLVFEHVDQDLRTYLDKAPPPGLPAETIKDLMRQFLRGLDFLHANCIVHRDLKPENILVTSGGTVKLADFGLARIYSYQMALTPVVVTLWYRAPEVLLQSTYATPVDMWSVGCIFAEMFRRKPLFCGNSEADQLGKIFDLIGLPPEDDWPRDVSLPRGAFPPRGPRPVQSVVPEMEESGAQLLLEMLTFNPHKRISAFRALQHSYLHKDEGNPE
T2 sequence (P24385 whole entry partner): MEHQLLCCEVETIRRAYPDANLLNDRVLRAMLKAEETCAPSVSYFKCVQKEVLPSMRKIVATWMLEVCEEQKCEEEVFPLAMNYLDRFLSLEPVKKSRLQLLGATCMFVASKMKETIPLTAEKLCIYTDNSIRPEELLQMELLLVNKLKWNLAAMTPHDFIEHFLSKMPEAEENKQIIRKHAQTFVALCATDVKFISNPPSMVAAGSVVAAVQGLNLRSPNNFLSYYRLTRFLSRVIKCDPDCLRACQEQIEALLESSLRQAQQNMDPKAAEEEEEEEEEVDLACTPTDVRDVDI
T3 sequence (Q00534 whole entry): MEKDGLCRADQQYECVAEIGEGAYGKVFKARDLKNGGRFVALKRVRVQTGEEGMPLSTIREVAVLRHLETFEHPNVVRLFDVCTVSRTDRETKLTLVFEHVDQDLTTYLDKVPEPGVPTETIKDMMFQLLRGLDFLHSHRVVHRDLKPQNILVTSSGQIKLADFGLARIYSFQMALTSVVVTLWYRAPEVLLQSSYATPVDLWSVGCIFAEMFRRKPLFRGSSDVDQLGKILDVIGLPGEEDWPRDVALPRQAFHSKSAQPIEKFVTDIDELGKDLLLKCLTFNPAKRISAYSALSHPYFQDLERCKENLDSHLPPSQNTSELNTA
T3 sequence (P24385 whole entry partner): as the sequence (P24385 whole entry partner) above
T4 sequence (P50750 whole entry): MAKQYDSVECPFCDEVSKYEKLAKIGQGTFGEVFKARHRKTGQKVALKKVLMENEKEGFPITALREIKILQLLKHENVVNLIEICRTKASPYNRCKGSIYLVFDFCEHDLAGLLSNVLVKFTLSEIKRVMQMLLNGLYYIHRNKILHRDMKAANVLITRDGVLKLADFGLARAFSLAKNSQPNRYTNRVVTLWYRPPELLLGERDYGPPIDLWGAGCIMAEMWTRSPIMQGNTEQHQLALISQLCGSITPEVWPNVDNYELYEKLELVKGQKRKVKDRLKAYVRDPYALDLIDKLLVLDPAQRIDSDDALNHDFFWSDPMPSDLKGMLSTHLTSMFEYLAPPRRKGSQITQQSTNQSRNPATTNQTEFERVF
T4 sequence (O60563 whole entry partner): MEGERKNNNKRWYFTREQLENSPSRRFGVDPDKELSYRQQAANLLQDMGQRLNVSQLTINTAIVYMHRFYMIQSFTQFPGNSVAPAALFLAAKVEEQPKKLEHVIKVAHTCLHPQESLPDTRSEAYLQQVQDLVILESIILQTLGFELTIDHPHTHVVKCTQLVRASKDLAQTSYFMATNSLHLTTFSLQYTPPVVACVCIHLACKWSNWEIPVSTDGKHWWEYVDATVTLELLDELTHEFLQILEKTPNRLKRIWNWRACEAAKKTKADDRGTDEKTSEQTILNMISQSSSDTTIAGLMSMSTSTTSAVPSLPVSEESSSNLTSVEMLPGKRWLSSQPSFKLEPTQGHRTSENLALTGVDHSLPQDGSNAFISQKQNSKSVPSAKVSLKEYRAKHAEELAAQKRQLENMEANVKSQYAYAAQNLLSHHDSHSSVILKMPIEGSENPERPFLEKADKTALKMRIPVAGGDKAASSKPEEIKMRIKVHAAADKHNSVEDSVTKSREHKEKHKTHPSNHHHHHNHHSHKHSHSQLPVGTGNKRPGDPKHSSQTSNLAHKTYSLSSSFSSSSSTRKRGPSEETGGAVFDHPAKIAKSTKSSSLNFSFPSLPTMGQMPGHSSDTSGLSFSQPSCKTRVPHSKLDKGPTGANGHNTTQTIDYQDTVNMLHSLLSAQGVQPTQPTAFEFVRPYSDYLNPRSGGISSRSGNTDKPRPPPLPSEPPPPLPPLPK

Row | IC50 [1] | IC50 [2] | IC50 [3] | IC50 [4] | IC50 [5] | IC50 [6] | IC50 [7] | SMILES
1 | 1.18 nM | 23.6 nM | 4.74 nM | – | – | – | – | C[C@@]1(O)CCC[C@H]1N1C(=O)CCc2cnc(NC3CCN(S(=O)(=O)C4CC4)CC3)nc21 [Compound 3]
2 | 1.32 nM | 37.5 nM | 5.42 nM | – | – | – | – | CCS(=O)(=O)N1CCC(Nc2ncc3c(n2)N([C@@H]2CCC[C@@]2(C)O)C(=O)CC3)CC1 [Compound 4]
3 | 1.74 nM | 46.9 nM | 8.95 nM | – | – | – | – | CC(C)S(=O)(=O)N1CCC(Nc2ncc3c(n2)N([C@@H]2CCC[C@@]2(C)O)C(=O)CC3)CC1 [Compound 5]
4 | 1.13 nM | 38.1 nM | 5.26 nM | – | – | – | – | COCCS(=O)(=O)N1CCC(Nc2ncc3c(n2)N([C@@H]2CCC[C@@]2(C)O)C(=O)CC3)CC1 [Compound 6]
5 | 1.4 nM | 3.99 nM | 1.52 nM | – | – | – | – | C[C@@]1(O)CCC[C@H]1N1C(=O)CCc2cnc(NC3CCN(S(=O)(=O)C4CNC4)CC3)nc21 [Compound 7]
6 | 1.78 nM | 14.9 nM | 3.4 nM | – | – | – | – | CCN1CC(S(=O)(=O)N2CCC(Nc3ncc4c(n3)N([C@@H]3CCC[C@@]3(C)O)C(=O)CC4)CC2)C1 [Compound 8]
7 | 1.4 nM | 15.7 nM | 3.69 nM | – | – | – | – | CC(C)N1CC(S(=O)(=O)N2CCC(Nc3ncc4c(n3)N([C@@H]3CCC[C@@]3(C)O)C(=O)CC4)CC2)C1 [Compound 9]
8 | 1.52 nM | 9.09 nM | 2.65 nM | – | – | – | – | CN1CC(S(=O)(=O)N2CCC(Nc3ncc4c(n3)N([C@@H]3CCC[C@@]3(C)O)C(=O)CC4)CC2)C1 [Compound 10]
9 | – | – | – | 17.2 nM | 140 nM | 458 nM | 120 nM | C[C@@]1(O)CCC[C@H]1n1c(=O)c(C(F)F)cc2cnc(NC3CCN(S(C)(=O)=O)CC3)nc21 [PF-06873600, reference compound]
